CC(=NC#N)N(C)Cc1ccc(Cl)nc1
solubility (mole fraction)
Conditions | 278.15 K | 283.15 K | 288.15 K | 293.15 K | 298.15 K | 303.15 K | 308.15 K | 313.15 K | 318.15 K
in 1,4-dioxane | – | – | 0.0693 | 0.0799 | 0.0941 | 0.113 | 0.132 | 0.153 | 0.175
in DMF | 0.175 | 0.201 | 0.229 | 0.269 | 0.318 | 0.368 | 0.421 | 0.477 | 0.542
in DMSO | – | – | – | 0.376 | 0.426 | 0.481 | 0.54 | 0.608 | 0.68
in NMP | 0.197 | 0.221 | 0.255 | 0.299 | 0.352 | 0.405 | 0.46 | 0.523 | 0.589
in acetone | 0.104 | 0.118 | 0.138 | 0.162 | 0.191 | 0.226 | 0.264 | 0.303 | 0.346
in ethanol | 0.0162 | 0.0192 | 0.0232 | 0.0284 | 0.0328 | 0.0382 | 0.0448 | 0.05 | 0.0572
in ethyl acetate | 0.0106 | 0.0128 | 0.0155 | 0.019 | 0.0233 | 0.0281 | 0.0332 | 0.039 | 0.0448
in ethylene glycol | 0.00978 | 0.0106 | 0.0134 | 0.0163 | 0.0194 | 0.023 | 0.0269 | 0.0313 | 0.0367
in isobutanol | 0.0028 | 0.00315 | 0.0037 | 0.00452 | 0.00519 | 0.00613 | 0.00696 | 0.00821 | 0.00932
in isopropanol | 0.0067 | 0.00763 | 0.00886 | 0.0108 | 0.0127 | 0.0147 | 0.0166 | 0.0195 | 0.0221
in methanol | 0.0199 | 0.0227 | 0.0273 | 0.0325 | 0.0382 | 0.0452 | 0.0532 | 0.0619 | 0.0703
in n-butanol | 0.00149 | 0.00165 | 0.00202 | 0.00242 | 0.00284 | 0.00337 | 0.00378 | 0.00447 | 0.00507
in water | 0.000146 | 0.000173 | 0.000213 | 0.000269 | 0.000348 | 0.00045 | 0.000572 | 0.000721 | 0.000911

Reference: BigSolDB 2.1
